# Assay results taken from patent US20120225061A1, “TETRASUBSTITUTED CYCLOHEXYL COMPOUNDS AS KINASE INHIBITORS” (priority 2011, published 2012).
# Where two headings read alike, the source gives them in different places.
# How the values were obtained:
# [1] = test system: KMS11 (human myeloma cell line); test: Cell proliferation assay (CellTiter-Glo) in KMS11 cells; assay type: cell-based; conditions: KMS-11, 72 h, read-out: KMS11-luc EC50
# Method in brief: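 KMS11 cells at 2000 per well in IMDM/10% FBS were exposed to compound for 3 days. Viability was read by CellTiter-Glo luminescence.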
# Pim2 kinase [2] = biological target: T1, Pim2 kinase (Homo sapiens, UniProt Q9P1W9); test: KinaseGlo Pim2 ATP depletion assay; assay type: biochemical; conditions: Table 4, 5 nM PIM2, 4 μM ATP, 10 μM BAD peptide
# Description: The activity of PIM2 is measured using a luciferase-luciferin based ATP detection reagent to quantify ATP depletion resulting from kinase-catalyzed phosphoryl transfer to a peptide substrate. Compounds to be tested are dissolved in 100% DMSO and directly distributed into white 384-well plates at 0.5 μl per well. […] After 15 minutes, 10 μl of 8 μM ATP in assay buffer is added. Final assay concentrations are 5 nM PIM2, 4 μM ATP, 10 μM BAD peptide and 2.5% DMSO. The reaction is performed until approximately 50% of the ATP is depleted, then stopped with the addition of 20 μl KinaseGlo Plus (Promega Corporation) solution. The stopped reaction is incubated for 10 minutes and the remaining ATP detected via luminescence on the Victor2 (Perkin Elmer).
# Pim1 kinase = Pim1 kinase (Homo sapiens, UniProt P11309); test: Pim1 AlphaScreen assay (high ATP)
# Pim3 kinase = Pim3 kinase (Homo sapiens, UniProt Q86V86); test: Pim3 AlphaScreen assay (high ATP)
# Description: (§1) The activity of Pim 1, Pim 2, & Pim 3 is measured using a homogeneous bead based system quantifying the amount of phosphorylated peptide substrate resulting from kinase-catalyzed phosphoryl transfer to a peptide substrate. Compounds to be tested are dissolved in 100% DMSO and directly distributed to a white 384-well plate at 0.25 μl per well. […] This is followed by the addition of 5 μl/well of Pim 1, Pim 2 or Pim 3 kinase in assay buffer (concentrations described below). Final assay concentrations (described below) are in 2.5% DMSO. The reactions are performed for ˜2 hours, then stopped by the addition of 10 μl of 0.75 μg/ml anti-phospho Ser/Thr antibody (Cell Signaling), 10 μg/ml Protein A AlphaScreen beads (Perkin Elmer), and 10 μg/ml streptavidin coated AlphaScreen beads in stop/detection buffer (50 mM EDTA, 95 mM Tris, pH=7.5, 0.01% Tween-20). The stopped reactions are incubated overnight in the dark. The phosphorylated peptide is detected via an oxygen anion initiated chemiluminescence/fluorescence cascade using the Envision plate reader (Perkin Elmer).
# Pim2 kinase [3] = biological target: T1, Pim2 kinase; test: Pim2 AlphaScreen assay (high ATP)
# Description: as §1
# Chain of Pim1 kinase (P11309 whole entry): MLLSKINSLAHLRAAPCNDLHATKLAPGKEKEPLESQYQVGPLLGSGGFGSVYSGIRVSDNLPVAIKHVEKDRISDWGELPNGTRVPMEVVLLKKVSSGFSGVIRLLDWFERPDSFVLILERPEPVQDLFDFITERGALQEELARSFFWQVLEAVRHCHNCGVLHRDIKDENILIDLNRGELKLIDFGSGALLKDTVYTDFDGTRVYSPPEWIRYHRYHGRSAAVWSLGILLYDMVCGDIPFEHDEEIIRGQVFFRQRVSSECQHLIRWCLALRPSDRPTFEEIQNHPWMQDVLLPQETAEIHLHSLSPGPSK
# T1 sequence (Q9P1W9 whole entry): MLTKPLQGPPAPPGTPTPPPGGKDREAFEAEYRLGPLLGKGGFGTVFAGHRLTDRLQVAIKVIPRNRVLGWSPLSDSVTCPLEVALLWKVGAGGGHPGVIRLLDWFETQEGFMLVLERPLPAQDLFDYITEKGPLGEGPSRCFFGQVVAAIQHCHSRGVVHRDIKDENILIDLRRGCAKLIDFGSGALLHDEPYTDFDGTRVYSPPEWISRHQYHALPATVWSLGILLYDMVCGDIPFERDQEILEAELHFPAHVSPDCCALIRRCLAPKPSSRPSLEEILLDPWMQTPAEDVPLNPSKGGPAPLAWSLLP
"EC50 ([1]; Table 4, 3 days) [nM]","EC50 ([1]; Table 5, 3 days) [nM]",IC50 (Pim2 kinase [2]) [nM],IC50 (Pim1 kinase) [nM],IC50 (Pim3 kinase) [nM],IC50 (Pim2 kinase [3]) [nM],Compound
–,–,20.8,1.9,17.2,109,"C[C@H]1C[C@@H](c2ccncc2NC(=O)c2csc(-c3c(F)cccc3F)n2)C[C@@H](N)[C@]1(C)O [Example 26, N-(4-((1R,3R,4R,5S)-3-amino-4-hydroxy-4,5-dimethylcyclohexyl)pyridin-3-yl)-2-(2,6-difluorophenyl) thiazole-4-carboxamide]"
–,–,229,18.3,138,476,"C[C@@H]1C[C@H](c2ccncc2NC(=O)c2ccc(F)c(-c3c(F)cccc3F)n2)C[C@H](N)[C@@]1(C)O [Example 28, N-(4-((1S,3S,4S,5R)-3-amino-4-hydroxy-4,5-dimethylcyclohexyl)pyridin-3-yl)-6-(2,6-difluorophenyl)-5-fluoropicolinamide]"
–,–,5.9,23.1,601,2140,"C[C@H]1C[C@@H](c2ccncc2NC(=O)c2nc(-c3nc(F)ccc3F)ccc2N)C[C@@H](O)[C@]1(C)O [Example 125, 5-amino-N-(4-((1R,3R,4R,5S)-3,4-dihydroxy-4,5-dimethylcyclohexyl)pyridin-3-yl)-3′,6′-difluoro-2,2′-bipyridine-6-carboxamide]"
≥ 10000,> 10000,9.7,29,1070,2310,"C[C@H]1C[C@@H](c2ccncc2NC(=O)c2nc(-c3nc(F)c(F)cc3F)ccc2N)C[C@@H](O)[C@]1(C)O [Example 128, 5-amino-N-(4-((1R,3R,4R,5S)-3,4-dihydroxy-4,5-dimethylcyclohexyl)pyridin-3-yl)-3′,5′,6′-trifluoro-2,2′-bipyridine-6-carboxamide]"
≥ 10000,> 10000,51.6,146,5090,17000,"C[C@H]1C[C@@H](c2ccncc2NC(=O)c2nc(-c3nc(Cl)c(C#N)cc3F)ccc2N)C[C@@H](O)[C@]1(C)O [Example 131, 5-amino-6′-chloro-5′-cyano-N-(4-((1R,3R,4R,5S)-3,4-dihydroxy-4,5-dimethylcyclohexyl)pyridin-3-yl)-3′-fluoro-2,2′-bipyridine-6-carboxamide]"
7140,7140,162,2530,> 25000,> 25000,"C[C@H]1C[C@@H](c2ccncc2NC(=O)c2nc(-c3cc(F)ccn3)ccc2N)C[C@@H](O)[C@]1(C)O [Example 132, 5-amino-N-(4-((1R,3R,4R,5S)-3,4-dihydroxy-4,5-dimethylcyclohexyl)pyridin-3-yl)-4′-fluoro-2,2′-bipyridine-6-carboxamide]"
4150,4150,50.7,78.7,3390,14300,"C[C@H]1C[C@@H](c2ccncc2NC(=O)c2nc(-c3ccc(F)cn3)ccc2N)C[C@@H](O)[C@]1(C)O [Example 134, 5-amino-N-(4-((1R,3R,4R,5S)-3,4-dihydroxy-4,5-dimethylcyclohexyl)pyridin-3-yl)-5′-fluoro-2,2′-bipyridine-6-carboxamide]"

# Continued, compound first:
Compound,"EC50 ([1]; Table 4, 3 days) [nM]","EC50 ([1]; Table 5, 3 days) [nM]",IC50 (Pim2 kinase [2]) [nM],IC50 (Pim1 kinase) [nM],IC50 (Pim3 kinase) [nM],IC50 (Pim2 kinase [3]) [nM]
"C[C@H]1C[C@@H](c2ccncc2NC(=O)c2nc(-c3ncccc3F)c(F)cc2N)C[C@@H](O)C1(C)O (stereo in doubt) [Example 130, 5-amino-N-(4-((1R,3R,4R,5S)-3,4-dihydroxy-4,5-dimethylcyclohexyl)pyridin-3-yl)-3,3′-difluoro-2,2′-bipyridine-6-carboxamide]",8960,8960,8.8,9.82,383,2140
"C[C@@H]1C[C@H](c2ccncc2NC(=O)c2csc(-c3c(F)cccc3F)n2)C[C@H](N)[C@@]1(C)O [Example 25, N-(4-((1S,3S,4S,5R)-3-amino-4-hydroxy-4,5-dimethylcyclohexyl)pyridin-3-yl)-2-(2,6-difluorophenyl)thiazole-4-carboxamide]",–,–,2010,111,992,8130
"C[C@H]1C[C@@H](c2ccncc2NC(=O)c2ccc(F)c(-c3c(F)cccc3F)n2)C[C@@H](N)[C@]1(C)O [Example 27, N-(4-((1R,3R,4R,5S)-3-amino-4-hydroxy-4,5-dimethylcyclohexyl)pyridin-3-yl)-6-(2,6-difluorophenyl)-5-fluoropicolinamide]",140,138,3.8,0.11,0.99,5.73
"C[C@@H]1C[C@H](c2ccncc2NC(=O)c2ccc(F)c(-c3c(F)cccc3F)n2)C[C@H](O)[C@]1(O)CF [Example 29, 6-(2,6-difluorophenyl)-5-fluoro-N-(4-((1S,3S,4S,5R)-4-(fluoromethyl)-3,4-dihydroxy-5-methylyclohexyl)pyridin-3-yl) picolinamide]",3270,3270,14.9,6.7,201,428
"C[C@H]1C[C@@H](c2ccncc2NC(=O)c2ccc(F)c(-c3c(F)cccc3F)n2)C[C@@H](O)[C@@]1(O)CF [Example 30, 6-(2,6-difluorophenyl)-5-fluoro-N-(4-((1R,3R,4R,5S)-4-(fluoromethyl)-3,4-dihydroxy-5-methylcyclohexyl)pyridin-3-yl) picolinamide]",130,133,2.2,0.71,22.8,50.1
"C[C@H]1C[C@@H](c2ccncc2NC(=O)c2ccc(F)c(-c3ccc(F)c(F)c3)n2)C[C@@H](O)[C@]1(C)O [Example 31, 6-(3,4-difluorophenyl)-N-(4-((1R,3R,4R,5S)-3,4-dihydroxy-4,5-dimethylcyclohexyl)pyridin-3-yl)-5-fluoropicolinamide]",≥ 10000,> 10000,93.4,215,5480,22100
"C[C@H]1C[C@@H](c2ccncc2NC(=O)c2nc(-c3cccc(F)n3)c(F)cc2N)C[C@@H](O)[C@]1(C)O [Example 126, 5-amino-N-(4-((1R,3R,4R,5S)-3,4-dihydroxy-4,5-dimethylcyclohexyl)pyridin-3-yl)-3,6′-difluoro-2,2′-bipyridine-6-carboxamide]",8030,8030,43.1,40.1,3520,14200
"CCOc1cccc(-c2ccc(N)c(C(=O)Nc3cnccc3[C@H]3C[C@@H](O)[C@](C)(O)[C@@H](C)C3)n2)n1 [Example 127, 5-amino-N-(4-((1R,3R,4R,5S)-3,4-dihydroxy-4,5-dimethylcyclohexyl)pyridin-3-yl)-6′-ethoxy-2,2′-bipyridine-6-carboxamide]",1390,1390,20,11.9,619,9180
"C[C@H]1C[C@@H](c2ccncc2NC(=O)c2nc(-c3ccc(F)c(F)c3)ccc2N)C[C@@H](O)[C@]1(C)O [Example 129, 3-amino-6-(3,4-difluorophenyl)-N-(4-((1R,3R,4R,5S)-3,4-dihydroxy-4,5-dimethylcyclohexyl)pyridin-3-yl)picolinamide]",3300,3300,20.1,57.7,1710,8160
"CC(=O)c1ccc(F)c(-c2ccc(N)c(C(=O)Nc3cnccc3[C@H]3C[C@@H](O)[C@](C)(O)[C@@H](C)C3)n2)n1 [Example 133, 6′-acetyl-5-amino-N-(4-((1R,3R,4R,5S)-3,4-dihydroxy-4,5-dimethylcyclohexyl)pyridin-3-yl)-3′-fluoro-2,2′-bipyridine-6-carboxamide]",5370,5370,5.4,7.19,182,2630
"C[C@H]1C[C@@H](c2ccncc2NC(=O)c2nc(-c3cccc(F)n3)ccc2N)C[C@@H](O)[C@]1(C)O [Example 135, 5-amino-N-(4-((1R,3R,4R,5S)-3,4-dihydroxy-4,5-dimethylcyclohexyl)pyridin-3-yl)-6′-fluoro-2,2′-bipyridine-6-carboxamide]",≥ 10000,> 10000,14.2,33.5,1130,5690
